Literature values as cited in publication PMC7094298 (Febs Letters, 2009).
Entries after “also recorded” stand apart in the source; their conditions may differ.

How the values were obtained:
SARS-CoV 3CLpro = SARS-CoV 3CLpro (Severe acute respiratory syndrome coronavirus, UniProt P0C6X7)
[1] = system: RV and other picornaviral 3Cpro

Structure (SMILES): CCOC(=O)/C=C/[C@H](C[C@@H]1CCNC1=O)NC(=O)[C@@H](CC(=O)[C@@H](NC(=O)c1cc(C)on1)C(C)C)Cc1ccc(F)cc1 [AG7088]
- inhibition of SARS-CoV 3CLpro (SARS-CoV 3CLpro): did not inhibit; also recorded: failed to inhibit
- inhibition of RV and other picornaviral 3Cpro [1]: potent inhibitor
